# Reference: patent US11166946B2 (CURATIS AG, priority 2018, dated 2021)
# Read-outs that look alike come from different tables or passages of the source.
# Columns and labels:
# [1] = single administration 300 mg, human subjects; cited from earlier work
# [2] = tested on: patients presenting with migraine with aura; assay: Randomized, double-blind, placebo controlled crossover study, aura events; type: in vivo, human
# Experimental: A multi-center, randomized, double-blind, placebo controlled crossover study was conducted with picotamide. […] The overall study duration was 7×4 weeks. […] “Aura Events” was one of the parameters that was measured. […] These observations were particularly observed in a subgroup of patients (moderate patients) that on average had 3 to 6 aura events per month prior to study enrollment. Patients with less than 3 aura events per month could be considered mild patients and would therefore benefit to a lesser degree from treatment. Patients with 7 or more aura events could be considered severe patients that are difficult to treat.
# platelets = conditions: in vitro; cited from earlier work
# [3] = tested on: patients with peripheral vascular disease; conditions: 300 mg, PO, t.i.d., 18-month period, 2,304 patients; cited from earlier work
# mouse = conditions: in vivo, cited from earlier work
# rat = conditions: in vivo, cited from earlier work
# mouse, rat and dog = conditions: cited from earlier work
# [4] = oral administration; biphasic clearance; cited from earlier work
Compound,time to reach maximum concentration (Tmax) [1] [min],"number of auras (aura events) ([2]; 300 mg twice daily 3×4 weeks, then placebo (Sequence A))","duration of continued improvement after switch to placebo ([2]; Sequence A, after 3×4 weeks of picotamide)","inhibition of platelet aggregation, degranulation and TxB2 production (platelets)",effectiveness and safety [3],LD50 (mouse; ip) [mg/kg],LD50 (mouse; po),LD50 (rat; ip) [mg/kg],LD50 (rat; po),"tolerability after subacute and chronic treatment (mouse, rat and dog; IP and PO, mouse, rat and dog)","embryotoxic or teratogenic effects (mouse, rat and dog; in vivo)","plasma clearance half-life, first rapid phase [4]"
"COc1ccc(C(=O)NCc2cccnc2)cc1C(=O)NCc1cccnc1 [picotamide, 4-methoxy-N,N′-bis(pyridin-3-ylmethyl)benzene-1,3-dicarboxamide]",30 to 45,reduces the number of auras even after picotamide administration,continued to improve for another 2×4 weeks,"inhibits in vitro platelet aggregation, degranulation, and TxB2 production, in a dose dependent manner",effective and well-tolerated antiplatelet drug with an incidence of adverse reactions similar to that of placebo,942 ± 29,"> 3,000 mg/kg",685 ± 27,"> 3,000 mg/kg",well tolerated,did not induce embryotoxic or teratogenic effects,–
COc1ccc(C(=O)NCc2cccnc2)cc1C(=O)NCc1cccnc1 [picotamide monohydrate],–,–,–,–,–,–,–,–,–,–,–,about 2 hours
